Measured values reported in patent US9605022B2, “Macrocyclic compounds for inhibition of inhibitors of apoptosis” (Ensemble Therapeutics Corporation, priority 2012, dated 2017).

What was measured:
[1] = biological target: XIAP BIR2-3 (His-BIR2-3 (125-356, C202A/C213G, XIAP)) (Homo sapiens (Human), UniProt P98170, C202A/C213G); assay: XIAP-BIR2-3 Dimeric SMAC Peptide Homogeneous Time Resolved Fluorescence (HTRF) Assay; type: binding; conditions: 0.5 nM N-His-BIR2-3, 20 nM fluorescein labeled dimeric SMAC peptide; read-out: XIAP BIR2-3 FRET IC50
Sequence of XIAP BIR2-3 (His-BIR2-3 (125-356, C202A/C213G, XIAP)) (P98170 125-356 C202A/C213G): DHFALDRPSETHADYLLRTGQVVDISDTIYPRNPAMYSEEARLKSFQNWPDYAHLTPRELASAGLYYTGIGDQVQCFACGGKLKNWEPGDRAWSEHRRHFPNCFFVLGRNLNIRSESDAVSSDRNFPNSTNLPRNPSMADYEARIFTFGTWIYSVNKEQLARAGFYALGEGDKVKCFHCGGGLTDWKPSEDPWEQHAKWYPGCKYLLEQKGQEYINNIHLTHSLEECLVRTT

[2] = biological target: XIAP BIR3 (His-BIR3 (241-356, XIAP)) (Homo sapiens (Human), UniProt P98170); assay: XIAP-BIR3/SMAC Homogeneous Time Resolved Fluorescence (HTRF) Assay; type: binding; conditions: 1 nM N-His-BIR3, 5 nM fluorescein labeled SMAC peptide; read-out: XIAP BIR3 FRET IC50
Sequence of XIAP BIR3 (His-BIR3 (241-356, XIAP)) (P98170 241-356): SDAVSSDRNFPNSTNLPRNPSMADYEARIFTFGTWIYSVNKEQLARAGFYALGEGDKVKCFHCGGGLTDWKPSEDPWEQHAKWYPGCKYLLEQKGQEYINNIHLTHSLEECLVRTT

Structure (SMILES)	IC50 [1]	IC50 [2]
CN[C@@H](C)C(=O)N[C@H](C(=O)N1CC[C@@H]2[C@H]1C(=O)N[C@@H](Cc1ccc3ccccc3c1)C(=O)N[C@H](C(=O)O)Cc1ccc(cc1)OCc1cn(nn1)[C@@H]1CCN(C(=O)[C@@H](NC(=O)[C@H](C)NC)C(C)(C)C)[C@@H]1C(=O)N[C@@H](Cc1ccc3ccccc3c1)C(=O)N[C@H](c1nnn[nH]1)Cc1ccc(cc1)OCc1cn2nn1)C(C)(C)C (single isomer, unassigned) [Example 15]	0.3 nM	1.9 nM
CN[C@@H](C)C(=O)N[C@H](C(=O)N1CC[C@@H]2[C@H]1C(=O)N[C@@H](Cc1ccc3ccccc3c1)C(=O)N[C@H](C(=O)O)Cc1ccc(cc1)OCc1cn(nn1)[C@@H]1CCN(C(=O)[C@@H](NC(=O)[C@H](C)NC)C(C)(C)C)[C@@H]1C(=O)N[C@@H](Cc1ccc3ccccc3c1)C(=O)N[C@H](c1nnn[nH]1)Cc1ccc(cc1)OCc1cn2nn1)C(C)(C)C (single isomer, unassigned) [Example 16]	2.2 nM	4.4 nM
CN[C@@H](C)C(=O)N[C@H](C(=O)N1CC[C@@H]2[C@H]1C(=O)N[C@@H](Cc1ccc3ccccc3c1)C(=O)N[C@H](C(=O)O)Cc1ccc(cc1)OCc1cn(nn1)[C@@H]1CCN(C(=O)[C@@H](NC(=O)[C@H](C)NC)C(C)(C)C)[C@@H]1C(=O)N[C@@H](Cc1ccc3ccccc3c1)C(=O)N[C@H](C(=O)O)c1ccc(cc1)OCc1cn2nn1)C(C)(C)C [Example 1]	1.1 nM	4.9 nM
CN[C@@H](C)C(=O)N[C@H](C(=O)N1CC[C@H]2OCc3cn(nn3)CCC[C@H](C(=O)O)NC(=O)[C@H](Cc3ccc4ccccc4c3)NC(=O)[C@@H]3[C@@H](CCN3C(=O)[C@@H](NC(=O)[C@H](C)NC)C(C)(C)C)OCc3cn(nn3)CCC[C@H](C(=O)O)NC(=O)[C@H](Cc3ccc4ccccc4c3)NC(=O)[C@H]21)C(C)(C)C [Example 3]	0.8 nM	1.9 nM
CN[C@@H](C)C(=O)N[C@H](C(=O)N1CC[C@H]2OCc3cn(nn3)[C@H](C(=O)O)CCNC(=O)[C@H](Cc3ccc4ccccc4c3)NC(=O)[C@@H]3[C@@H](CCN3C(=O)[C@@H](NC(=O)[C@H](C)NC)C(C)(C)C)OCc3cn(nn3)[C@H](C(=O)O)CCNC(=O)[C@H](Cc3ccc4ccccc4c3)NC(=O)[C@H]21)C(C)(C)C [Example 4]	1.6 nM	57.8 nM
CN[C@@H](C)C(=O)N[C@H](C(=O)N1CC[C@@H]2[C@H]1[C@@H](Cc1ccc3ccccc3c1)C(=O)N[C@H](C(=O)O)Cc1ccc(cc1)OCc1cn(nn1)[C@@H]1CCN(C(=O)[C@@H](NC(=O)[C@H](C)NC)C(C)(C)C)[C@@H]1C(=O)C[C@@H](Cc1ccc3ccccc3c1)C(=O)N[C@H](C(=O)OC)Cc1ccc(cc1)OCc1cn2nn1)C(C)(C)C [Example 7]	6.5 nM	29 nM
CN[C@@H](C)C(=O)N[C@H](C(=O)N1CC[C@@H]2[C@H]1C(=O)N[C@@H](Cc1ccc3ccccc3c1)C(=O)N[C@H](C(=O)O)Cc1ccc(cc1)OCc1cn(nn1)[C@@H]1CCN(C(=O)[C@@H](NC(=O)[C@H](C)NC)C(C)(C)C)[C@@H]1C(=O)N[C@@H](Cc1ccc3ccccc3c1)C(=O)N[C@H](C(=O)NS(=O)(=O)c1ccccn1)Cc1ccc(cc1)OCc1cn2nn1)C(C)(C)C [Example 10]	16.9 nM	63.1 nM
CN[C@@H](C)C(=O)N[C@H](C(=O)N1CC[C@@H]2[C@H]1C(=O)N[C@@H](Cc1ccc3ccccc3c1)C(=O)N[C@H](C(=O)O)Cc1ccc(cc1)OCc1cn(nn1)[C@@H]1CCN(C(=O)[C@@H](NC(=O)[C@H](C)NC)C(C)(C)C)[C@@H]1C(=O)N[C@@H](Cc1ccc3ccccc3c1)C(=O)N[C@H](C(=O)NS(=O)(=O)C1CC1)Cc1ccc(cc1)OCc1cn2nn1)C(C)(C)C [Example 11]	1.3 nM	10.3 nM
CN[C@@H](C)C(=O)N[C@H](C(=O)N1CC[C@@H]2[C@H]1C(=O)NC(=O)C[C@@H](Cc1ccc3ccccc3c1)C(=O)N[C@H](C(=O)O)Cc1ccc(cc1)OCc1cn(nn1)[C@@H]1CCN(C(=O)[C@@H](NC(=O)[C@H](C)NC)C(C)(C)C)[C@@H]1C(=O)N[C@@H](Cc1ccc3ccccc3c1)C(=O)N[C@H](c1n[nH]c(=O)o1)Cc1ccc(cc1)OCc1cn2nn1)C(C)(C)C [Example 14]	1.3 nM	8.6 nM
CN[C@@H](C)C(=O)N[C@H](C(=O)N1CC[C@@H]2[C@H]1C(=O)N[C@@H](Cc1ccc3ccccc3c1)C(=O)N[C@H](C(=O)O)Cc1ccc(cc1)OCc1cn(nn1)[C@@H]1CCN(C(=O)[C@@H](NC(=O)[C@H](C)NC)C(C)(C)C)[C@@H]1C(=O)N[C@@H](Cc1ccc3ccccc3c1)C(=O)N[C@H](c1nc(=S)o[nH]1)Cc1ccc(cc1)OCc1cn2nn1)C(C)(C)C [Example 17]	0.8 nM	3.2 nM
CN[C@@H](C)C(=O)N[C@H](C(=O)N1CC[C@@H]2[C@H]1C(=O)N[C@@H](Cc1ccc3ccccc3c1)C(=O)N[C@H](C(=O)O)Cc1ccc(cc1)OCc1cn(nn1)[C@@H]1CCN(C(=O)[C@@H](NC(=O)[C@H](C)NC)C(C)(C)C)[C@@H]1C(=O)N[C@@H](Cc1ccc3ccccc3c1)C(=O)N[C@H](c1nc(=S)o[nH]1)Cc1ccc(cc1)OCc1cn2nn1)C(C)(C)C [Example 18]	2.2 nM	
CN[C@@H](C)C(=O)N[C@H](C(=O)N1CC[C@@H]2[C@H]1C(=O)N[C@@H](Cc1ccc3ccccc3c1)C(=O)N[C@H](C(=O)O)Cc1ccc(cc1)OCc1cn(nn1)[C@@H]1CCN(C(=O)[C@@H](NC(=O)[C@H](C)NC)C(C)(C)C)[C@@H]1C(=O)N[C@@H](Cc1ccc3ccccc3c1)C(=O)N[C@H](c1nc(=O)o[nH]1)Cc1ccc(cc1)OCc1cn2nn1)C(C)(C)C [Example 19]	0.4 nM	2 nM
CN[C@@H](C)C(=O)N[C@H](C(=O)N1CC[C@@H]2[C@H]1C(=O)N[C@@H](Cc1ccc3ccccc3c1)C(=O)N[C@H](C(=O)O)Cc1ccc(cc1)OCc1cn(nn1)[C@@H]1CCN(C(=O)[C@@H](NC(=O)[C@H](C)NC)C(C)(C)C)[C@@H]1C(=O)N[C@@H](Cc1ccc3ccccc3c1)C(=O)N[C@H](c1nc(=O)o[nH]1)Cc1ccc(cc1)OCc1cn2nn1)C(C)(C)C [Example 20]	2.9 nM	10.1 nM
